The test system of data set [1] is mutant Q11E β-sarcoglycan. Nature of the data set: Quadritransfected cell model: immunohistochemical labelling of mutant Q11E β-sarcoglycan. In kind it is cell-based, human. Conditions: dMJ 5, 50 or 100 μM; FIG. 12C. How it is done:
(§1) A second aspect of the invention relates to the assay used for in vitro assessment of the efficacy of inhibitors of the endoplasmic reticulum associated degradation (ERAD) pathway, used for the treatment of sarcoglycanopathies. This assay consists of the following steps: • co-transfection of cells with the four sarcoglycan genes (γ-, α-, β- and δ-), of which one carries the mutation to be tested; • incubation for several hours in the presence of the inhibitor; • localisation of the sarcoglycan complex.
C/Immunohistochemical labelling of β-sarcoglycan in cells quadritransfected with the three α-, γ- and δ-sarcoglycans and mutant Q11E β-sarcoglycan with or without 1-deoxymannojirimycin (dMJ) 5, 50 or 100 μM.
B/Immunohistochemical labelling of β-sarcoglycan in cells quadritransfected with the three α-, γ- and δ-sarcoglycans and mutant Q11E β-sarcoglycan with or without kifunensin 5 μM.
(§2) Cross-sections were dried, then rehydrated in PBS or fixed cells were treated for 20 min with 1% triton in PBS, then incubated for 30 min at room temperature (RT) in PBS containing 15% foetal calf serum. […]

In data set [2] the test system is mutant R77C α-sarcoglycan. Nature of the data set: Quadritransfected cell model: membrane targeting of mutant R77C α-sarcoglycan, immunohistochemical labelling. In kind it is cell-based, human. As for the experimental part:
as §1
(§3) Cross-sections were dried, then rehydrated in PBS or fixed cells were treated for 20 min with 1% triton in PBS, then incubated for 30 min at room temperature (RT) in PBS containing 15% foetal calf serum. Cross-sections were incubated with polyclonal anti-sarcoglycan antibodies (α-sarcoglycan: dilution 1/1000, targeting amino acids 366-379 of human α-sarcoglycan; β-sarcoglycan: dilution 1/20, NCL-b-SARC (Novocastra); γ-sarcoglycan: dilution 1/20, NCL-g-SARC (Novocastra); dystrophin: dilution 1/20, NCL-DYS2 (Novocastra); and calreticulin: dilution 1/70, ab4109 (Abcam)) for 1 to 2 hours at RT then rinsed 3 times in PBS. […] Cross-sections were then rinsed three times in PBS, mounted with fluoromount-G (Southern Biotech 0100-01) and then observed with a confocal microscope (Leica). Immunohistochemical analysis of human biopsy specimens was performed as described in Hackman et al. (9).
NIH3T3 or 911 cells were grown in Dulbecco's Modified Eagle Medium supplemented with glutamine, gentamicin and 10% foetal calf serum. Cells were transfected using […] Fugene (ROCHE) per 1 μg plasmid. 0.5 μg of each plasmid (α-SG or α-SG-R77C and β-SG, γ-SG, δ-SG) was used per well in 6-well dishes. For treatment by inhibitors, 43 hours after transfection cells were incubated for 5 hours with either the mannosidase inhibitor (kifunensin 5 μM, VWR) or the proteasome inhibitor (MG132 5 μM diluted in DMSO, Sigma). Cells were then rinsed in PBS and fixed with 3.7% formaldehyde in PBS for 15 min at RT, and rinsed three more times in PBS before immunohistochemical labelling. […]

For data set [3], the system named is mutant E262K δ-sarcoglycan. As to the kind of experiment: Quadritransfected cell model: immunohistochemical labelling of mutant E262K δ-sarcoglycan. The conditions noted are these: dMJ 5 or 100; FIG. 12B. Type of data set: cell-based, human. How it is done:
as §1
B/Immunohistochemical labelling of δ-sarcoglycan in cells quadritransfected with the three α-, β- and γ-sarcoglycans and mutant E262K δ-sarcoglycan with or without 1-deoxymannojirimycin (dMJ) 5 or 100
FIG. 13: A/Immunohistochemical labelling of δ-sarcoglycan in cells quadritransfected with the three α-, β- and γ-sarcoglycans and mutant E262K δ-sarcoglycan with or without kifunensin 5 μM.
as §2

Data set [4] concerns mutant α-sarcoglycan in Sgca−/− muscle. Nature of the data set: Intramuscular inhibitor in Sgca−/− mice injected with AAV-SGCA77C vector: α-sarcoglycan labelling of muscle. Type of data set: in vivo, mouse. Conditions: AAV-SGCA77C in tibialis anterior, 10 μM kifunensin intramuscular over one week, FIG. 11. How it is done:
as §3
The rAAV2/1 viral preparations were injected (10^10 viral genomes (vg) in 30 μl total volume) in the left tibialis anterior muscle of Sgca−/− mice. On days 20, 22, 25 and 27 after injection, 10 μM kifunensin or 20 μM MG132 were injected into the muscle (i.e. either twice or 4 times the concentrations used in vitro to take into account diffusion within the muscle). One day prior to sacrifice (day 27), mice were injected intraperitoneally with Evans blue dye. […]

The conditions of data set [5]: cited from earlier work.

Structures are written as SMILES. Where a SMILES comes first, the peptide text is derived from it. The star is where a group is joined. Cbz = O=C(OCc1ccccc1)*

Take `OC[C@H]1NC[C@@H](O)[C@@H](O)[C@@H]1O` [1-deoxymannojirimycin]: the “restoration for mutation Q11E on sub-unit β” value in data set [1] is given as “confirmed our working hypothesis”. Besides, the “membrane targeting of mutant α-sarcoglycan (R77C)” value (“membrane targeting” for short) in data set [2] (100 μM 1-deoxymannojirimycin, FIG. 12A) was “efficacy of this substance for restoring membrane targeting”. In addition, the “restoration for mutation E262K on sub-unit δ” value in data set [3] was “confirmed our working hypothesis”.

As for `CC(C)C[C@@H](C=O)NC(=O)[C@H](CC(C)C)NC(=O)[C@H](CC(C)C)NC(=O)OCc1ccccc1` [MG132] (Cbz-Leu-Leu-Leu-aldehyde), in data set [2] (MG132 5 μM, 5 hours, 43 hours after transfection, NIH3T3 or 911 cells, FIG. 9), the “membrane targeting” value was “restored membrane targeting”.

`O=C1N[C@@H]2[C@@H](O)[C@@H](O)[C@H](O)[C@@H](CO)N2C1=O` [kifunensin, Kifunensin]: the “membrane targeting” value in data set [2] (kifunensin 5 μM, 5 hours, 43 hours after transfection, NIH3T3 or 911 cells, FIG. 10) was “restore membrane targeting”. In addition, in data set [4], the “intracellular α-sarcoglycan aggregates in muscle” value is listed as “absence of aggregates”. For the same molecule, the water solubility entry in data set [5] is recorded as “water-soluble”.

The values above are taken from patent US8673935B2, “Drugs for the treatment of sarcogylcanopathies” (Genethon, priority 2006, dated 2014).
